Measurements from patent US9169259B2, “Imidazopyridazine compounds” (Hoffmann-La Roche Inc., priority 2011, dated 2015).
Structures can show the parent of a compound that is named as a salt.

Biological target: recombinant human SYK360-635 (Homo sapiens (Human), UniProt P43405)
Experiment: SYK kinase assay (33P ATP filtration, IC50 of SYK inhibition)
Type: biochemical
Settings: truncated SYK aa 360-635 0.5 nM, ATP 20 μM, peptide 5 μM, 30° C. 15 min; read-out: ENZYME_FILTRATION_IC50
Method: Determination of IC50 of Spleen Tyrosine Kinase (SYK) Inhibition:
SYK kinase assay is a standard kinase assay adapted to a 96 well plate format. This assay is performed in 96-well format for IC50 determination with […] which represented 10 half log dilutions and a 40 μL reaction volume. The assay measures the incorporation of radiolabeled ^33P γATP into an N-terminally biotinylated peptide substrate, derived from naturally occurring phosphoacceptor consensus sequence (Biotin-11aa DY*E). Phosphorylated products were detected upon termination of reactions with EDTA and the addition of Streptavidin coated beads.
Assay plates: 96-well MultiScreen 0.65 um filter plates (Millipore Cat. No.: MADVNOB10)
final concentration: 50 mM HEPES pH7.5
BSA: Bovine Serum Albumin Fraction V, fatty acid free (Roche Diagnostics GmbH, Cat. No. 9100221) diluted to a final concentration of 0.1%
Assay Dilution Buffer (ADB): 50 mM HEPES, 0.1 mM EGTA, 0.1 mM Na Vanadate, 0.1 mM β-glycerophosphate, 10 mM MgCl2, 1 mM DTT, 0.1% BSA, pH 7.5
Bead wash buffer: 10 g/L PBS (Phosphate buffered saline) with 2M NaCl+1% phosphoric acid.
DMSO and the mixture was incubated for 10 min at RT.
The kinase reaction was initiated by the addition of 10 μL 4× substrate cocktail containing the DYE peptide substrate [0 or 5 μM], ATP [20 μM] and ^33PγATP [2 μCi/r×n]. After incubation at 30° C. for 15 min, the reaction was terminated by the transfer of 25 μL of the reaction sample to a 96 well 0.65 μm Millipore MADVNOB membrane/plate containing 200 μL 5 mM EDTA and 20% Streptavidine coated beads in PBS.
After the last wash membrane/plates were transferred to an adaptor plate, heat dried for 15 min at 60° C., and 50 μL scintillation cocktail was added to each well and 4 h later the amount of radioactivity was counted in a top counter.

Row | Structure (SMILES) | IC50 [nM]
1 | COc1ccc(-c2cc(Nc3cccc(N4CCCC4C)n3)c3nccn3n2)cc1OC (centres unmarked) [Example I-62, [6-(3,4-Dimethoxy-phenyl)-imidazo[1,2-b]pyridazin-8-yl]-[6-(2-methyl-pyrrolidin-1-yl)-pyridin-2-yl]-amine] | 306
2 | CCN(CC)CCOc1cccc(-c2cc(Nc3cccc(N4CCCC4C)n3)c3nccn3n2)c1 (centres unmarked) [Example I-91, {6-[3-(2-Diethylamino-ethoxy)-phenyl]-imidazo[1,2-b]pyridazin-8-yl}-[6-(2-methyl-pyrrolidin-1-yl)-pyridin-2-yl]-amine] | 261
3 | COc1ccc(Nc2cc(-c3ccc(C(=O)NCCc4cc[nH]c(=O)c4)cc3)nn3ccnc23)nc1OC [Example I-28, 4-[8-(5,6-Dimethoxy-pyridin-2-ylamino)-imidazo[1,2-b]pyridazin-6-yl]-N-[2-(2-oxo-1,2-dihydro-pyridin-4-yl)-ethyl]-benzamide] | 187
4 | CC1CCCN1c1cccc(Nc2cc(-c3ccc(F)cc3)nn3ccnc23)n1 (centres unmarked) [Example I-79, [6-(4-Fluoro-phenyl)-imidazo[1,2-b]pyridazin-8-yl]-[6-(2-methyl-pyrrolidin-1-yl)-pyridin-2-yl]-amine] | 488
5 | COc1cccc(-c2cc(Nc3cccc(N4CCCC4C)n3)c3nccn3n2)c1 (centres unmarked) [Example I-39, [6-(3-Methoxy-phenyl)-imidazo[1,2-b]pyridazin-8-yl]-[6-(2-methyl-pyrrolidin-1-yl)-pyridin-2-yl]-amine] | 292

Now from value to compound:

Row | IC50 [nM] | Structure (SMILES)
6 | 219 | CC1CCCN1c1cccc(Nc2cc(-c3cccc(C(=O)N4CCOCC4)c3)nn3ccnc23)n1 (centres unmarked) [Example I-42, (3-{8-[6-(2-Methyl-pyrrolidin-1-yl)-pyridin-2-ylamino]-imidazo[1,2-b]pyridazin-6-yl}-phenyl)-morpholin-4-yl-methanone]
7 | 246 | C[C@H]1CCCN1c1cccc(Nc2cc(-c3cccc(Cl)c3)nn3ccnc23)n1 [Example I-71, [6-(3-Chloro-phenyl)-imidazo[1,2-b]pyridazin-8-yl]-[6-((S)-2-methyl-pyrrolidin-1-yl)-pyridin-2-yl]-amine hydrochloride]
8 | 345 | COCC1CCCN1c1cccc(Nc2cc(-c3cccc(C(=O)O)c3)nn3ccnc23)n1 (centres unmarked) [Example I-36, 3-{8-[6-(2-Methoxymethyl-pyrrolidin-1-yl)-pyridin-2-ylamino]-imidazo[1,2-b]pyridazin-6-yl}-benzoic acid]
